# Where two headings read alike, the source gives them in different places.
# Experiments:
# [1] = In vivo pharmacokinetics in infected mice (plasma, LC-MS/MS); set-up: species or system BALB/c mice; details: BALB/c, mouse, plasma, po, steady state, infected mice
# Protocol: The drugs were formulated in 0.5% hydroxypropyl methyl cellulose (HPMC)–0.1% Tween 80 suspensions as 3- or 4-drug combinations. Formulations were prepared by weighing and adding each compound to the bottle, according to the design. Formulation vehicle was added, and the suspension was stirred overnight. Only uniform suspensions were used, while those that precipitated were abandoned. Formulations were prepared every week, and compound stability was estimated at the end of the week. Pharmacokinetics (PK) analysis was performed on infected mice on the 20th day of dosing. Blood samples were collected from each mouse at 0.5, 2, 4, 6, and 24 h after compound administration. Blood samples of about 30 μl were collected from mice in all groups by serial sampling via the saphenous vein into Microvette CB300 tubes (Starstedt, Germany) coated with EDTA, and plasma (10 μl) was separated following centrifugation. Plasma samples were stored at –20°C until analysis using liquid chromatography-tandem mass spectrometry (LC-MS/MS).
# A 1-mg/ml stock solution of each compound was prepared in dimethyl sulfoxide (DMSO) for all of the analytes except PZA and LZD, for which the stock solution was 10 mg/ml in DMSO, and RIF, for which the stock solution was prepared in 50% acetonitrile in water. Three different sets of calibration standard (CS) combinations were prepared by 2-fold dilution of the stock solutions. CS set 1 contained analytes CLO, BDQ, PA824, PZA, and SQ109, CS set 2 contained analytes BTZ043, MXF, THI, EMB, and PZA, and CS set 3 contained LZD, INH, RIF, and PZA. A 16-point calibration curve was utilized for all analytes, and the standard curves ranged from 0.0005 to 20 μg/ml except for PZA and LZD, for which the standard curve range was 0.006 to 200 μg/ml. Plasma samples were precipitated by adding chilled acetonitrile (1:10, vol/vol) containing carbamazepine as an internal standard (10 ng/ml). Samples were vortexed and then centrifuged at 4,000 rpm for 30 min at 10°C. The resulting supernatant was mixed with the mobile phase (50% acetonitrile in water with 0.1% formic acid). Five microliters of the sample was injected on to a liquid chromatographic system (Acquity ultraperformance liquid chromatography [UPLC] system, Waters, Milford, MA) coupled to a triple-quadrupole mass spectrometer (Xevo TQ-S; Waters, Milford, MA). Samples were separated on an LC column (ACE 3 C18, 50 by 4.6 mm, 3 μm particle size; Advanced Chromatography Technologies, Aberdeen, Scotland) by isocratic elution with 40 parts of 20 mM ammonium formate containing 0.1% (vol/vol) formic acid and 60 parts of acetonitrile at a flow rate of 0.5 ml/min with a run time of 4 min. Samples were acquired in positive ion mode and detected by multiple reaction monitoring (MRM). The concentrations of the analyte were determined from a standard curve obtained by plotting known concentrations of the analyte against peak area ratios (analyte/internal standard peak response).
# PK analyses of the plasma concentration-time relationships were performed with Phoenix software (version 6.2; Pharsight, USA). A noncompartmental analysis program, model 200, was used to calculate PK parameters. The maximum concentration of drug in plasma (Cmax), time to Cmax (Tmax), elimination half-life (t1/2), and area under the concentration-time curve (AUC) from time zero to infinity (AUC0–∞) were estimated. AUC was computed using the trapezoidal rule (linear up and log down), and the AUC0–∞ was considered only when the extrapolated AUC was not more than 20% of the original value. A minimum of three sample points in the terminal slope were used to calculate half-life.
# M. tuberculosis H37Rv [2] = experiment: MIC determination, resazurin-based microplate assay; type: cell-based, Mycobacterium tuberculosis; details: single drug
# M. tuberculosis H37Rv [3] = experiment: In vitro bactericidal-effect analysis (CFU enumeration of checkerboard wells); type: cell-based, Mycobacterium tuberculosis; details: single drug at its MIC (FIC of 1); positive = reduction in CFU
# Protocol: For determining the extent of the bactericidal effect, sample wells which remained blue in the resazurin microtiter assay (REMA) and whose ΣFICs were within the synergistic-to-additive range (<0.7 for doublets and <1.5 for triplets) were plated on Middlebrook 7H10 agar medium and incubated at 37°C for 21 to 28 days, following which bacterial colonies were enumerated to obtain the net reduction in CFU in comparison to the counts for the untreated controls at the start of drug testing, as well as to that achieved when M. tuberculosis was exposed to each drug alone.
# [4] = 150 mg/kg, Group 1 quartet CFZ 20/BDQ 25/PA824 50/PZA 150 mg/kg oral, read-out: AUC0-24 in Quartet
# [5] = 150 mg/kg, Group 1 quartet CFZ 20/BDQ 25/PA824 50/PZA 150 mg/kg oral, read-out: Cmax in Quartet
# [6] = 150 mg/kg, Group 3 quartet BTZ043 37.5/SQ109 25/MXF 200/PZA 150 mg/kg oral, read-out: AUC0-24 in Quartet
# [7] = 150 mg/kg, Group 3 quartet BTZ043 37.5/SQ109 25/MXF 200/PZA 150 mg/kg oral, read-out: Cmax in Quartet
# [8] = 150 mg/kg, Group 7 quartet PA824 50/BDQ 25/MXF 400/PZA 150 mg/kg oral, read-out: AUC0-24 in Quartet
# [9] = 150 mg/kg, Group 7 quartet PA824 50/BDQ 25/MXF 400/PZA 150 mg/kg oral, read-out: Cmax in Quartet
# [10] = 150 mg/kg, Group 9 quartet EMB 100/SQ109 25/LZD 130/PZA 150 mg/kg oral, read-out: AUC0-24 in Quartet
# [11] = 150 mg/kg, Group 9 quartet EMB 100/SQ109 25/LZD 130/PZA 150 mg/kg oral, read-out: Cmax in Quartet
compound,measurement,setting,value
NC(=O)c1cnccn1 [Pyrazinamide],AUC(0-t),[1]; [4],115 ± 6.5 µg·h/mL
same,Cmax,[1]; [5],64000 ± 9800 ng/mL
same,AUC(0-t),"[1]; 150 mg/kg, Group 2 quartet SQ109 25/BDQ 25/PA824 50/PZA 150 mg/kg oral, read-out: AUC0-24 in Quartet",148 ± 2.1 µg·h/mL
same,Cmax,"[1]; 150 mg/kg, Group 2 quartet SQ109 25/BDQ 25/PA824 50/PZA 150 mg/kg oral, read-out: Cmax in Quartet",64500 ± 3100 ng/mL
same,AUC(0-t),[1]; [6],156 ± 13.2 µg·h/mL
same,Cmax,[1]; [7],42000 ± 700 ng/mL
same,AUC(0-t),"[1]; 150 mg/kg, Group 5 quartet EMB 100/BDQ 25/SQ109 25/PZA 150 mg/kg oral, read-out: AUC0-24 in Quartet",144 ± 29.5 µg·h/mL
same,Cmax,"[1]; 150 mg/kg, Group 5 quartet EMB 100/BDQ 25/SQ109 25/PZA 150 mg/kg oral, read-out: Cmax in Quartet",67200 ± 2500 ng/mL
same,AUC(0-t),"[1]; 150 mg/kg, Group 6 quartet BTZ043 37.5/THI 800/SQ109 25/PZA 150 mg/kg oral, read-out: AUC0-24 in Quartet",154 ± 23.8 µg·h/mL
same,Cmax,"[1]; 150 mg/kg, Group 6 quartet BTZ043 37.5/THI 800/SQ109 25/PZA 150 mg/kg oral, read-out: Cmax in Quartet",40200 ± 13300 ng/mL
same,AUC(0-t),[1]; [8],144 ± 16.9 µg·h/mL
same,Cmax,[1]; [9],33200 ± 2300 ng/mL
same,AUC(0-t),"[1]; 150 mg/kg, Group 8 quartet PA824 50/BDQ 25/EMB 100/PZA 150 mg/kg oral, read-out: AUC0-24 in Quartet",127 ± 9 µg·h/mL
same,Cmax,"[1]; 150 mg/kg, Group 8 quartet PA824 50/BDQ 25/EMB 100/PZA 150 mg/kg oral, read-out: Cmax in Quartet",69000 ± 12700 ng/mL
same,AUC(0-t),[1]; [10],119 ± 7 µg·h/mL
same,Cmax,[1]; [11],39500 ± 4400 ng/mL
same,AUC(0-t),"[1]; 150 mg/kg, Ref. regimen quartet INH 30/RIF 10/EMB 100/PZA 150 mg/kg oral, read-out: AUC0-24 in Quartet",161 ± 18.8 µg·h/mL
same,Cmax,"[1]; 150 mg/kg, Ref. regimen quartet INH 30/RIF 10/EMB 100/PZA 150 mg/kg oral, read-out: Cmax in Quartet",69700 ± 9700 ng/mL
NCC[C@H](O)C(=O)N[C@@H]1C[C@H](N)[C@@H](O[C@H]2O[C@H](CN)[C@@H](O)[C@H](O)[C@H]2O)[C@H](O)[C@H]1O[C@H]1O[C@H](CO)[C@@H](O)[C@H](N)[C@H]1O [Amikacin],MIC,M. tuberculosis H37Rv [2]; Mycobacterium tuberculosis,0.43 µM
same,ΔLog10 CFU/ml at the MIC,M. tuberculosis H37Rv [3],−0.20 Log10 CFU/ml
CC(C)/N=c1\cc2n(-c3ccc(Cl)cc3)c3ccccc3nc-2cc1Nc1ccc(Cl)cc1 [Clofazimine],MIC,M. tuberculosis H37Rv [2]; Mycobacterium tuberculosis,0.26 µM
same,ΔLog10 CFU/ml at the MIC,M. tuberculosis H37Rv [3],0.72 Log10 CFU/ml
same,AUC(0-t),"[1]; 50 mg/kg, Group 1 triplet CFZ 20/BDQ 25/PA824 50 mg/kg oral, read-out: AUC0-24 in Triplet",42.8 ± 5.4 µg·h/mL
same,Cmax,"[1]; 50 mg/kg, Group 1 triplet CFZ 20/BDQ 25/PA824 50 mg/kg oral, read-out: Cmax in Triplet",2300 ± 200 ng/mL
same,AUC(0-t),[1]; [4],48 ± 5.2 µg·h/mL
same,Cmax,[1]; [5],2400 ± 200 ng/mL
[H]/N=C(/N)N[C@H]1[C@H](O)[C@@H](O)[C@H](O[C@@H]2O[C@@H](C)[C@](O)(C=O)[C@H]2O[C@@H]2O[C@@H](CO)[C@H](O)[C@@H](O)[C@@H]2NC)[C@@H](N/C(N)=N\[H])[C@@H]1O [Streptomycin],MIC,M. tuberculosis H37Rv [2]; Mycobacterium tuberculosis,0.68 µM
same,ΔLog10 CFU/ml at the MIC,M. tuberculosis H37Rv [3],0.36 Log10 CFU/ml
Capreomycin,MIC,M. tuberculosis H37Rv [2],5.91 µM
same,ΔLog10 CFU/ml at the MIC,M. tuberculosis H37Rv [3],−0.11 Log10 CFU/ml
COc1c(N2C[C@@H]3CCCN[C@@H]3C2)c(F)cc2c(=O)c(C(=O)O)cn(C3CC3)c12 [Moxifloxacin],MIC,M. tuberculosis H37Rv [2]; Mycobacterium tuberculosis,0.02 µM
same,ΔLog10 CFU/ml at the MIC,M. tuberculosis H37Rv [3],1.40 Log10 CFU/ml
same,AUC(0-t),[1]; [6],13.3 ± 3.1 µg·h/mL
same,Cmax,[1]; [7],3900 ± 600 ng/mL
same,AUC(0-t),[1]; [8],76.3 ± 13.9 µg·h/mL
same,Cmax,[1]; [9],5100 ± 700 ng/mL
same,AUC(0-t),"[1]; 200 mg/kg, Group 3 triplet BTZ043 37.5/SQ109 25/MXF 200 mg/kg oral, read-out: AUC0-24 in Triplet",12.1 ± 3.5 µg·h/mL
same,Cmax,"[1]; 200 mg/kg, Group 3 triplet BTZ043 37.5/SQ109 25/MXF 200 mg/kg oral, read-out: Cmax in Triplet",2200 ± 900 ng/mL
same,AUC(0-t),"[1]; 400 mg/kg, Group 7 triplet PA824 50/BDQ 25/MXF 400 mg/kg oral, read-out: AUC0-24 in Triplet",29.8 ± 6.6 µg·h/mL
same,Cmax,"[1]; 400 mg/kg, Group 7 triplet PA824 50/BDQ 25/MXF 400 mg/kg oral, read-out: Cmax in Triplet",4600 ± 800 ng/mL
C[C@@H](O)[C@H]1C(=O)N2C(C(=O)O)=C(S[C@@H]3CN[C@H](C(=O)N(C)C)C3)[C@H](C)[C@H]12 [Meropenem],MIC,M. tuberculosis H37Rv [2]; Mycobacterium tuberculosis,8.15 µM
same,ΔLog10 CFU/ml at the MIC,M. tuberculosis H37Rv [3],0.57 Log10 CFU/ml
CC(=O)NC[C@H]1CN(c2ccc(N3CCOCC3)c(F)c2)C(=O)O1 [Linezolid],MIC,M. tuberculosis H37Rv [2]; Mycobacterium tuberculosis,2.31 µM
same,ΔLog10 CFU/ml at the MIC,M. tuberculosis H37Rv [3],0.25 Log10 CFU/ml
same,AUC(0-t),"[1]; 130 mg/kg, Group 9 triplet EMB 100/SQ109 25/LZD 130 mg/kg oral, read-out: AUC0-24 in Triplet",154 ± 8.8 µg·h/mL
same,Cmax,"[1]; 130 mg/kg, Group 9 triplet EMB 100/SQ109 25/LZD 130 mg/kg oral, read-out: Cmax in Triplet",14100 ± 100 ng/mL
same,AUC(0-t),[1]; [10],178 ± 12.2 µg·h/mL
same,Cmax,[1]; [11],14900 ± 1200 ng/mL
NC[C@H]1O[C@H](O[C@H]2[C@H](O)[C@@H](O[C@H]3O[C@H](CO)[C@@H](O)[C@H](N)[C@H]3O)[C@H](N)C[C@@H]2N)[C@H](O)[C@@H](O)[C@@H]1O [Kanamycin],MIC,M. tuberculosis H37Rv [2],1.61 µM
same,ΔLog10 CFU/ml at the MIC,M. tuberculosis H37Rv [3],0.44 Log10 CFU/ml
CC[C@H]1OC(=O)[C@H](C)[C@@H](O[C@H]2C[C@@](C)(OC)[C@@H](O)[C@H](C)O2)[C@H](C)[C@@H](O[C@@H]2O[C@H](C)C[C@H](N(C)C)[C@H]2O)[C@](C)(OC)C[C@@H](C)C(=O)[C@H](C)[C@@H](O)[C@]1(C)O [Clarithromycin],MIC,M. tuberculosis H37Rv [2]; Mycobacterium tuberculosis,9.63 µM
same,ΔLog10 CFU/ml at the MIC,M. tuberculosis H37Rv [3],0.75 Log10 CFU/ml
N[C@@H]1CON=C1O [D-Cycloserine],MIC,M. tuberculosis H37Rv [2]; Mycobacterium tuberculosis,30.6 µM
same,ΔLog10 CFU/ml at the MIC,M. tuberculosis H37Rv [3],0.87 Log10 CFU/ml
